Entries after “also recorded” stand apart in the source; their conditions may differ. No end group written: not given here.

In series [1] the test system is GPRC6A. Description: Displacement of labelled ucOCN by SHBG141–161 on HEK-293 cells transfected with human Gprc6a. The class given is binding. Conditions: for staining signal for labelled ucOCN vs ucOCN alone: 1 nM biotinylated ucOCN, 1 h room temperature, binding buffer pH 7.4, streptavidin-FITC, image analysis, mean of 3 independent experiments. As for the experimental part:
The binding of SHBG141–161 to GPRC6A was assessed by displacement experiments as previously described. To this aim, HEK-293 cells were transfected with human Gprc6a gene (Fig. 2C-I,II). The efficiency of the procedure was evaluated by real-time PCR, allowing the identification of a specific signal for Gprc6a gene only in transfected cells. Accordingly, a specific membrane signal was observed by immunostaining only in transfected cells. On these bases, HEK-293 cells transfected with Gprc6a gene were incubated with 1 nM labelled ucOCN and SHBG141–161 at the concentration of 0, 10 nM (10×) and 100 nM (100×) (Fig. 2D-I,II).
Human embryonic kidney (HEK)-293T cells (passage number 11 to 15) were obtained from the American Type Culture Collection (ATCC®-LGC Standards Sesto San Giovanni, MI, Italy) and cultivated in DMEM [ATCC®; RRID 30–2002) and supplemented with 10% fetal bovine serum (Euroclone, Milano, Italy; RRID: ECS0180L) and 1%antibiotic/antimycotic mixture in a humidified incubator at 37 °C with 5% CO2. Expression vector containing wild-type (WT) human GPRC6A cDNA (OriGene Technologies, Inc) was used according to manufacturer’s instruction. Briefly, cultured HEK- 293 T cells at 70% of confluence were transfected by FuGENE 6 (Roche Diagnostics) with 1 μg/well of GPRC6A-pcDNA and maintained for 48 hours, followed by overnight starving in serum-free condition to achieve quiescence. HEK-293T cells transfected with empty vector were used as negative controls. Starved cells were fixed in 1% paraformaldehyde and used for binding assessment by incubation for 1 h at room temperature with biotinylated ucOCN, with or without SHBG141–161 in ice-cold-binding buffer (50 mM Tris-HCl [pH 7.4], 10 mM MgCl2, 0.1 mM EDTA, and 0.1% BSA) according to the different experimental conditions used. After extensive washing in cold PBS, samples were incubated with streptavidin-Fluorescein isothiocyanate (FITC) (dilution 1:200; Sigma-Aldrich; RRID: S3762). Evaluation of GPRC6A expression by immunofluorescence was performed as described for β-TC6 (see below). Computer assisted image analysis was performed by the ImageJ image analysis software, powered by routines specifically developed by our group as previously described[43],[44]. […]

The test system of series [2] is MA-10 cells. Description: Testosterone (T) release from Leydig MA-10 cells (GPRC6A-mediated). The class given is cell-based, Mouse. Conditions: for T release vs basal: 48 hours; for agonist activity (T release) after GPRC6A blockade: pre-incubation with anti-GPRC6A polyclonal antibodies 20 mg/mL, 30 minutes at 37 °C. As for the experimental part: Human ucOCN was obtained from chemical decarboxylation of cxOCN, purchased from Bachem AG (Bachem, Bubendorf, Switzerland), as previously described. For displacement experiments, an aliquot ucOCN underwent chemical biotinylation as previously described[9],[41]. Unliganded human SHBG was purchased by […], Belgium). Human chorionic gonadotropin Gonasi was purchased by IBSA Farmaceutici Srl (Italy). Mouse Leydig-carcinoma cell line MA-10 (passage number 3 to 8; ATCC®; RRID: CRL-1573) were cultured on 0,1% gelatin/PBS-coated plasticware according to the manufacturer's instructions and maintained in DMEM:F12 Medium (ATCC®; RRID: 30-2006; pH 7,4) supplemented with additional 20 mM HEPES and horse serum to a final concentration of 15%. For immunofluorescence experiments, cells were let attach on 0,1% gelatin/PBS-coated round-coverslips (ø 13 mm, Menzel-Gläser-VWR International Srl, Milan, Italy) and then washed and fixed with 4% paraformaldehyde/PBS solution at room temperature for 15 min. After membrane permeabilization with 1% Triton X/PBS solution for 10 min at room temperature, cells were saturated with 5% bovine serum albumin/5% normal donkey serum/PBS solution for 1 hour and then incubated with rabbit-polyclonal anti-mouse GPRC6A IgG (dilution 1:200; Santa Cruz Biotechnology Inc. Heidelberg Germany; RRID: sc-67302,) and goat-polyclonal anti-human INSL3 IgG (dilution 1:200; Santa Cruz Biotechnology Inc; RRID: sc-48550) at 4 °C overnight. After extensive washing, primary immunoreaction was detected by appropriate secondary reagent, respectively: biotin conjugated-anti rabbit IgG (dilution 1:100; Vector Laboratories, Peterborough, UK; RRID: BA-1000) followed by Streptavidin […], (dilution 1:100; GeneTex/Prodotti Gianni, Milano, Italy; RRID: GTX85907) and FITC conjugated-anti goat IgG (dilution 1:100; Abcam, Milan, Italy; RRID: ab6737). Samples were then counterstained with 4',6-diamidino-2-phenylindole (DAPI), mounted with anti-fade buffer and then analyzed with Video-Confocal (VICO) fluorescence microscope (Nikon, Firenze, Italy). […] RRID: KGE010) according to manufacturer's instructions. Receptor blockade experiments were performed by pre-incubating cultured cells with anti-GPRC6A polyclonal antibodies (final concentration of […]; Santa Cruz Biotechnology Inc; RRID: sc-67302) for 30 minutes at 37 °C as previously described.

The test system of series [3] is β-TC6 cells. Description: Insulin release from Langerhans β-TC6 cells (GPRC6A-mediated). Conditions: for insulin release vs basal: 2 hours at 37 °C in 3 mM glucose/HBSS; for agonist activity (insulin release) after GPRC6A blockade: pre-incubation with anti-GPRC6A polyclonal antibodies 20 mg/mL, 30 minutes at 37 °C. The class given is cell-based, Mouse.
A short description of series [4]: Far-UV circular dichroism. The series is classed as physicochemical. Conditions: 25 °C, PBS (20 mM sodium phosphate, pH 7.4, 0.1 M NaCl), 70 μg/ml. As for the experimental part: The conformational properties of SHBG141–161 were investigated by far-UV circular dichroism (CD) on a Jasco J-710 spectropolarimeter, equipped with a Peltier temperature control system. The molar concentration of the peptide was determined spectrophotometrically by recording the absorbace at 257 nm, using an absorptivity value for phenylalanine of 200 M-1·cm-1. CD spectra were recorded at 25 °C in a 1-mm pathlength quartz cell at a scan-speed of 10 nm/min, with a response time of 16 sec, and resulted from the average of two accumulations after baseline subtraction. CD signal was expressed as the mean residue ellipticity (θ) = θobs·MRW/(10·l·c), where θobs is the observed signal in degrees, MRW is the protein mean residue weight, l is the cuvette pathlength in cm, and c is the protein concentration in g/ml.

Series [5] concerns GPRC6A. Details: method as in 2 sources, ref 5 = [5]; PMID 15576628; doi:10.1124/mol.104.007559; 5. Wellendorph P Deorphanization of GPRC6A: a promiscuous L-alpha-amino acid receptor with preference for basic amino acids Molecular Pharmacology 2005 67 3 589 97 10.1124/mol.104.007559 15576628 ||| ref 6 = [6]; PMID 20947496; doi:10.1074/jbc.M110.158063; 6. Pi M Parrill AL Quarles LD GPRC6A mediates the non-genomic effects of steroids Journal of Biological Chemistry 2010 285 51 39953 64 10.1074/jbc.M110.158063 20947496 PMC3000977. Conditions: cited from earlier work.

[6] abbreviates: SHBG141–161 concentrations greater than 10^−9 M, preliminary experiments, data not shown.

As for IALGGLLFPASNLRLPLVPAL [SHBG141–161], in series [1] (0, 10 nM and 100 nM SHBG141–161, 1 nM labelled ucOCN), the “competition with ucOCN for binding to GPRC6A (overall result)” value is recorded as “progressive reduction of the signal for labelled ucOCN; also recorded: compete with ucOCN for the binding to GPRC6A; also recorded: partial competition activity”. Besides, in series [1] (SHBG141–161 10 nM (10×)), the “staining signal for labelled ucOCN vs ucOCN alone” value is on record as “significant reduction of the staining signal for ucOCN”. Also, in series [1] (SHBG141–161 100 nM (100×)), the “staining signal for labelled ucOCN vs ucOCN alone” value is reported as “significant reduction of the staining signal for ucOCN”. In addition, in series [2] (SHBG141–161, particularly 10^−13 to 10^−11M, five independent experiments), the “T release vs basal” value is reported as “increase of T release”. Also, the “T release at high concentration” value in series [2] (setting [6]) is reported as “not effective”. Further, the “agonist activity (T release) after GPRC6A blockade” value in series [2] is recorded as “completely abolished the agonist activity”. In addition, the “insulin release vs basal” value in series [3] (SHBG141–161 10^−13 to 10^−10 M, five independent experiments) is on record as “significant increased insulin levels in culture supernatants”. In series [3] (setting [6]), the “insulin release at high concentration” value was “not effective”. The “agonist activity (insulin release) after GPRC6A blockade” value in series [3] is “completely abolished the agonist activity”. Further, in series [4], the “conformation by far-UV CD” value is “random or non-regular conformation” and the “far-UV CD minimum” value was determined as 200 nm.
Take `C[C@]12CC[C@H]3[C@@H](CCC4=CC(=O)CC[C@@]43C)[C@@H]1CC[C@@H]2O` [T, testosterone]: the “non-genomic action mediated by GPRC6A” value in series [5] is recorded as “mediator of non-genomic action of T”.
Regarding magnesium, the “activation of GPRC6A” value in series [5] is reported as “activated”.
For “ucOCN: Human ucOCN was obtained from chemical decarboxylation of cxOCN, purchased from Bachem AG (YLYQWLGAPVPYPDPLEPRREVCELNPDCDELADHIGFQEAYRRFYGPV; ends and bridges not checked; also: undercarboxylated by chemical decarboxylation of carboxylated OCN; UniProt P02818 52-100, looked up)”, the “membrane signal of labelled ucOCN alone, transfected cells” value in series [1] (1 nM labelled ucOCN, HEK-293 + GPRC6A) is listed as “clear membrane signal associated with GPRC6A expression”. Further, the “staining of labelled ucOCN, non-transfected cells” value in series [1] (1 nM labelled ucOCN, HEK-293 without GPRC6A) is given as “absence of significant staining in non-transfected cells”. Moreover, in series [2], the “agonist activity (T release) after GPRC6A blockade” value is recorded as “completely abolished the agonist activity”. Moreover, the “T release vs basal” value in series [2] (ucOCN 0,5–2 nM) was “progressive and significant increase of T release”. In addition, the “agonist activity (insulin release) after GPRC6A blockade” value in series [3] was “completely abolished the agonist activity”. Moreover, the “insulin release vs basal” value in series [3] (ucOCN 0,5–2 nM) was “significant and dose dependent increase of insulin release”.
Regarding zinc, in series [5], the “activation of GPRC6A” value is listed as “activated”.
For the compound `NCCCC[C@H](N)C(=O)O` [L-lysine], the “activation of GPRC6A” value in series [5] is reported as “activated”.
For the compound `N=C(N)NCCC[C@H](N)C(=O)O` [L arginine], in series [5], the “activation of GPRC6A” value was “activated”.
For the compound calcium, the “activation of GPRC6A” value in series [5] was “activated”.

These data come from PMC6923452, “SHBG141–161 Domain-Peptide Stimulates GPRC6A-Mediated Response in Leydig and β-Langerhans cell lines” (Scientific Reports, 2019).
